Results from patent US8354274B2, “Synthetic surfaces for culturing cells in chemically defined media” (Geron Corporation, priority 2008, dated 2013).
Bridges are numbered along the chain shown (N, C = ends). Where no end group is shown, it is not given here.

What was measured:
HepG2/C3A cells = experiment: Serum-free attachment of HepG2/C3A cells (LDH activity, absorbance at 490 nm); type: cell-based; conditions: peptide conjugated to SA layer, 24 hours
Procedure: HepG2/C3A cells (ATCC # CRL-10741) were plated at 25,000 cells per well in 100 μl media in triplicate on SAP surfaces, BD BioCoat™ Collagen I and Corning CellBind® treated Topas™ in a 96 well format and cultured at in Eagle's Minimum Essential Medium (ATCC #30-2003) supplemented with 1% penicillin-streptomycin (Invitrogen #15140-155). The culture medium was not supplemented with fetal bovine serum (as recommended by the cell line supplier) nor was the SAP surface exposed to fetal bovine serum. The culture plates were incubated at 37° C., in 5% CO2 and 95% relative humidity for 24 hours. The cell culture plates having the SA surfaces were prepared as described in EXAMPLE 1. Peptides were conjugated according to EXAMPLE 2. […] The line in FIG. 24 indicates 75% performance of cells on Collagen 1.
The attachment of the HepG2/C3A cells was determined using a Cytotoxicity Assay (Promega CytoTox 96® Non-Radioactive Cytotoxicity Assay # G1780) which estimates the number of living cells attached to the culture surfaces. After 24 hours of in culture, the cells were vigorously washed with phosphate buffer, lysed via the introduction of the lysis buffer solution and incubation at 37 C for 1 hour to release lactate dehydrogenase (LDH) enzyme from the viable cells that remain attached to the culture surfaces. The biological activity of the released lactate dehydrogenase enzyme was measured via absorbance at 490 nm using a plate reader (Victor 3 from PerkinElmer).

[1] = system: HT-1080 human fibrosarcoma cells; experiment: HT-1080 cell adhesion assay (crystal violet, absorbance at 570 nm); type: cell-based; conditions: for HT-1080 adhesion compared with linear BSP (SEQ ID NO:4)-conjugated (meth)acrylate: cyclic peptide conjugated to Formulation SA1, normalized to fibronectin (FN, 5 mg/mL)-coated surfaces
Source text: To evaluate ability of a polypeptide conjugated to embodiments of swellable (meth)acrylate using these conjugation methods to enable cell adhesion and proliferation, peptides Ac-LysTyrGlyArgLysArgLeuGlnValGlnLeuS erIleArgThr-NH2 (SE Q ID NO:22) (AG-73, an adhesive peptide) and Ac-GlyArgGlyGluSerProIleTyrLys-NH2 (SEQ ID NO:30) (RGE, a negative control) were conjugated to swellable (meth)acrylate (as described above) and adhesion of HT-1080 human fibrosarcoma cells to the swellable (meth)acrylate was evaluated. Briefly, Laminin (5 μg/mL, Sigma-Aldrich) control wells were coated for 1 hour at room temperature. All wells were blocked with 1% bovine serum albumin (BSA) in phosphate buffered saline (PBS) for 1 hour at 37° C. Wells were washed briefly with PBS before incubation with 0.1% BSA in Iscove's Modified Dulbecco's Medium (IMDM) prior to cell seeding. HT-1080 human fibrosarcoma cells (ATCC number: CCL-121) were grown in IMDM (Lonza) with 10% FBS (Lonza) to 90% confluency at standard cell culture conditions. Cells were trypsinized and allowed to recover in IMDM with 10% FBS for 30 minutes at 37° C., 5% CO2. After recovery, cells were washed and resuspended in 0.1% BSA in IMDM and seeded on peptide-conjugated plates at a density of 30,000 cells/well. Cell adhesion was allowed to take place for 1 hour at standard cell culture conditions. The media was aspirated from the wells and adherent cells were fixed and stained in 50 μL of 0.2% crystal violet in 20% methanol for 8 minutes at room temperature. Cellular absorption of crystal violet was quantified through addition of 1% SDS in H2O for 5 minutes prior to absorbance measurement at 570 nm. For this assay, after polypeptide conjugation the remaining NHS esters on the swellable (meth)acrylate were reacted with ethanolamine or aminopropyl morpholine to reduce uptake of crystal violet dye by the swellable (meth)acrylate.

H7 hES cells = experiment: AttoPhos screening (alkaline phosphatase activity) of undifferentiated hES cells in chemically defined medium; type: cell-based, human; conditions: for support of culture of undifferentiated stem cells (AttoPhos): peptides conjugated to Formulation SA1 at 10, 100 and 1000 μM input concentration
Procedure: All experimental plates were sterilized prior to the cell seeding by spraying with 70% ETOH, drying in a laminar hood, and washing five times with 200 μl Dulbecco's Phosphate Buffered Saline (DPBS). H7 hES cells were seeded on peptide conjugated swellable (meth)acrylate (SAP) surfaces at a density of 35,000 cells/well (96-well plate) in 100 μl of chemically defined medium Xvivo10 (Lonza, Cat #04-743Q) and supplemented with 80 ng/ml basic fibroblast growth factor (bFGF) (R&D systems, Cat #234-FSE/CF) and 0.5 ng/ml transforming growth factor-β1 (TGFβ1) (R&D systems, Cat. #240B). MATRIGEL™ (MG)-coated wells were used as positive control for adhesion of undifferentiated hES cells. Cells were cultured for 48 hrs under standard cell culture conditions (37° C. with 5% CO2) and then were fixed and processed for AttoPhos assay to measure alkaline phosphatase activity, which is a known marker for undifferentiated hES cells, and/or BCIP staining as described below.
AttoPhos screening was performed as follows. Briefly, at the end of incubation time, cells were rinsed with 150 μl of DPBS and fixed with 4% paraformaldehyde for 10 min at room temperature (70 μl/well of 96-well plate). The cells were washed once with 150 μl of DPBS, and treated for 10 min with 100 μl of AttoPhos fluorescent substrate for alkaline phosphatase (Promega) (diluted 1:3 in DPBS) protected from light. AttoPhos fluorescent intensity at 485/535 nm was obtained using Victor 3 microplate reader (Perklin Elmer). AttoPhos fluorescent intensity for experimental surfaces was expressed as % of MATRIGEL™ control.

[2] = peptide conjugated to swellable (meth)acrylate, 1 hour adhesion, OD570 nm normalized to Laminin

Substance: KGGGQKCIVQTTSWSQCSKS (cysteine pairing not given here) [SEQ ID NO:13]
- serum-free attachment of HepG2/C3A cells compared with CellBind treated Topas (HepG2/C3A cells): greater than CellBind® treated Topas™

Substance: Ac-LysGlyGlyLys^4GluProArgGlyAspThrTyrArgAsp^13-NH2 (Ac-KGGKEPRGDTYRD-NH2; lactam 4-13; SMILES CC(=O)N[C@@H](CCCCN)C(=O)NCC(=O)NCC(=O)N[C@H]1CCCCNC(=O)C[C@@H](C(N)=O)NC(=O)[C@H](CCCNC(=N)N)NC(=O)[C@H](Cc2ccc(O)cc2)NC(=O)[C@H]([C@@H](C)O)NC(=O)[C@H](CC(=O)O)NC(=O)CNC(=O)[C@H](CCCNC(=N)N)NC(=O)[C@@H]2CCCN2C(=O)[C@H](CCC(=O)O)NC1=O) [SEQ ID NO:7]
- HT-1080 adhesion compared with linear BSP (SEQ ID NO:4)-conjugated (meth)acrylate [1]: supported HT-1080 adhesion similarly to linear BSP-conjugated (meth)acrylates

Substance: Ac-LysGlyGlyLys^4AsnGlyGluProArgGlyAspThrTyrArgAlaTyrAsp^17-NH2 (Ac-KGGKNGEPRGDTYRAYD-NH2; lactam 4-17; SMILES CC(=O)N[C@@H](CCCCN)C(=O)NCC(=O)NCC(=O)N[C@H]1CCCCNC(=O)C[C@@H](C(N)=O)NC(=O)[C@H](Cc2ccc(O)cc2)NC(=O)[C@H](C)NC(=O)[C@H](CCCNC(=N)N)NC(=O)[C@H](Cc2ccc(O)cc2)NC(=O)[C@H]([C@@H](C)O)NC(=O)[C@H](CC(=O)O)NC(=O)CNC(=O)[C@H](CCCNC(=N)N)NC(=O)[C@@H]2CCCN2C(=O)[C@H](CCC(=O)O)NC(=O)CNC(=O)[C@H](CC(N)=O)NC1=O) [SEQ ID NO:6]
- HT-1080 adhesion compared with linear BSP (SEQ ID NO:4)-conjugated (meth)acrylate [1]: supported HT-1080 adhesion similarly to linear BSP-conjugated (meth)acrylates

Substance: Ac-LysGlyGlyCys^4GluProArgGlyAspThrTyrArgCys^17-NH2 (Ac-KGGCEPRGDTYRC-NH2; disulfide 4-13; SMILES CC(=O)N[C@@H](CCCCN)C(=O)NCC(=O)NCC(=O)N[C@H]1CSSC[C@@H](C(N)=O)NC(=O)[C@H](CCCNC(=N)N)NC(=O)[C@H](Cc2ccc(O)cc2)NC(=O)[C@H]([C@@H](C)O)NC(=O)[C@H](CC(=O)O)NC(=O)CNC(=O)[C@H](CCCNC(=N)N)NC(=O)[C@@H]2CCCN2C(=O)[C@H](CCC(=O)O)NC1=O) [SEQ ID NO:9]
- HT-1080 adhesion compared with linear BSP (SEQ ID NO:4)-conjugated (meth)acrylate [1]: supported HT-1080 adhesion similar to

Substance: KYGKAFDITYVRLKF [SEQ ID NO:21]
- serum-free attachment of HepG2/C3A cells compared with CellBind treated Topas (HepG2/C3A cells): greater than CellBind® treated Topas™

Substance: Ac-LysGlyGlyCys^4AsnGlyGluProArgGlyAspThrTyrArgAlaTyrCys^17-NH2 (Ac-KGGCNGEPRGDTYRAYC-NH2; disulfide 4-17; SMILES CC(=O)N[C@@H](CCCCN)C(=O)NCC(=O)NCC(=O)N[C@H]1CSSC[C@@H](C(N)=O)NC(=O)[C@H](Cc2ccc(O)cc2)NC(=O)[C@H](C)NC(=O)[C@H](CCCNC(=N)N)NC(=O)[C@H](Cc2ccc(O)cc2)NC(=O)[C@H]([C@@H](C)O)NC(=O)[C@H](CC(=O)O)NC(=O)CNC(=O)[C@H](CCCNC(=N)N)NC(=O)[C@@H]2CCCN2C(=O)[C@H](CCC(=O)O)NC(=O)CNC(=O)[C@H](CC(N)=O)NC1=O) [SEQ ID NO:8]
- HT-1080 adhesion compared with linear BSP (SEQ ID NO:4)-conjugated (meth)acrylate [1]: supported HT-1080 adhesion similar to

Substance: Ac-LysGlyGlyAsnGlyGluProArgGlyAspThrTyrArgAlaTyr-NH2 (Ac-KGGNGEPRGDTYRAY-NH2) [SEQ ID NO:4]
- AttoPhos fluorescence intensity (FI) compared to MATRIGEL control (H7 hES cells; SEQ ID NO:4 conjugated to Formulation SA1A using 1000 μM solution, Xvivo10 + bFGF + TGFβ1, 48 hrs): 56-60%
- adhesion and growth of undifferentiated stem cells versus peptide concentration (AttoPhos) (H7 hES cells; peptide at 1, 10, 100 and 1000 μM, formulation SA1A surfaces): peptide concentration dependent
- support of culture of undifferentiated stem cells (AttoPhos) (H7 hES cells): appeared to better support the culture of undifferentiated stem cells

Substance: KYGSETTVKYIFRLHE [SEQ ID NO:19]
- attachment of HepG2/C3A cells compared to Collagen I (HepG2/C3A cells): *CLS 01035 (Polypeptides exhibiting results better than 75% attachment compared to Collagen I (see FIG. 24) are marked with an asterix in Table 6)
- serum-free attachment of HepG2/C3A cells compared with CellBind treated Topas (HepG2/C3A cells): greater than CellBind® treated Topas™

Substance: Ac-GlyArgGlyGluSerProIleTyrLys-NH2 (Ac-GRGESPIYK-NH2) [reference compound]
- adhesion of HT-1080 cells [1, 2]: did not adhere

Substance: KGGTWYKIAFQRNRK [SEQ ID NO:16]
- attachment of HepG2/C3A cells compared to Collagen I (HepG2/C3A cells): *CLS 01020 (Polypeptides exhibiting results better than 75% attachment compared to Collagen I (see FIG. 24) are marked with an asterix in Table 6)
- serum-free attachment of HepG2/C3A cells compared with CellBind treated Topas (HepG2/C3A cells): greater than CellBind® treated Topas™

Substance: Ac-LysTyrGlyArgLysArgLeuGlnValGlnLeuSerIleArgThr-NH2 (Ac-KYGRKRLQVQLSIRT-NH2) [AG-73]
- adhesion of HT-1080 cells ([1]; 1 μM peptide solution used for conjugation): did not result in cell adhesive surface
- adhesion of HT-1080 cells ([1]; 10 μM peptide solution used for conjugation): resulted in an adhesive surface
- adhesion of HT-1080 cells ([1]; 100 μM peptide solution used for conjugation): resulted in an adhesive surface
- adhesion of HT-1080 cells [1, 2]: adhered specifically

Substance: GlyArgGlyAspSerProLys (GRGDSPK; Synthetic polypeptide including sequence derived from human fibronectin) [s-FN]
- support of culture of undifferentiated stem cells (AttoPhos) (H7 hES cells): comparable in performance to the long fibronectin sequence
